According to ChEMBL document CHEMBL4020831, “Discovery of GDC-0853: A Potent, Selective, and Noncovalent Bruton's Tyrosine Kinase Inhibitor in Early Clinical Development” (J Med Chem, 2018):

How the values were obtained:
[1] = Clearance in human liver microsomes at 1 uM incubated up to 60 mins by LC-MS/MS method; type: ADME, microsome
[2] = molecular target: T1, Tyrosine-protein kinase BTK (Homo sapiens, UniProt Q06187); assay: Inhibition of human recombinant C-terminal polyhistidine tagged BTK (1 to 659 residues)-mediated synthetic peptide substrate phosphorylation expressed in baculovirus-infected insect cells
[3] = molecular target: T1, Tyrosine-protein kinase BTK
Description: Inhibition of BTK in human whole blood-derived CD19+ B cells assessed as suppression of anti-IgM stimulated-CD69 expression preincubated for 1 hr followed by IgM stimulation for 18 hrs by FACS analysis

[4] = physchem; conditions: buffer, pH 7.4
[5] = Permeability across apical to basolateral in MDCK1 cells; type: ADME, cell-based, Canis lupus familiaris; conditions: dog, MDCK; read-out: permeability
[6] = in vitro; conditions: dog, MDCK
Description: Efflux ratio of permeability in MDCK1 cells

[7] = molecular target: T2, TEC (Homo sapiens, UniProt P42680); assay: Inhibition of recombinant human cytoplasmic full length His-tagged TEC expressed in baculovirus at 1 uM by Z'-LYTE assay
T2 sequence (P42680 whole entry): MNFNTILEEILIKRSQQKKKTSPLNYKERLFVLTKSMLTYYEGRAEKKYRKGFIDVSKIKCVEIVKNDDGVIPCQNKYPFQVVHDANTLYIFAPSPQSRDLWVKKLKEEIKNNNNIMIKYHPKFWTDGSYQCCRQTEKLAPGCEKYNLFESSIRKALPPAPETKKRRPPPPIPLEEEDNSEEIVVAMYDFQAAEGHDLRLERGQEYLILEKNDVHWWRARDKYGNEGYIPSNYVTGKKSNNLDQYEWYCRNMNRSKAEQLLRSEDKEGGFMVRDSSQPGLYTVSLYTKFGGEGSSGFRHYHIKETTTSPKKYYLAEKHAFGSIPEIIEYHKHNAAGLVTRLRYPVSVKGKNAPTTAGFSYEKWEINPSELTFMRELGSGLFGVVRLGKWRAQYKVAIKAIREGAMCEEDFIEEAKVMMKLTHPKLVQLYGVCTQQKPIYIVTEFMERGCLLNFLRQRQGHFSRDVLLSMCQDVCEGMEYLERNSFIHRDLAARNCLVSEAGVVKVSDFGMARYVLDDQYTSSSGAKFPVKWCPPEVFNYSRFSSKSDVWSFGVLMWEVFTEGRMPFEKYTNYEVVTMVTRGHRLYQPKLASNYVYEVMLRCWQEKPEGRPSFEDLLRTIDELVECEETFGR

[8] = molecular target: BLK (Homo sapiens, UniProt P51451); assay: Inhibition of recombinant human full length His-tagged BLK expressed in baculovirus at 1 uM by Z'-LYTE assay
[9] = molecular target: T3, JAK3 (Homo sapiens, UniProt P52333); assay: Inhibition of recombinant human catalytic GST-tagged JAK3 expressed in baculovirus at 1 uM by Z'-LYTE assay
T3 sequence (P52333 whole entry): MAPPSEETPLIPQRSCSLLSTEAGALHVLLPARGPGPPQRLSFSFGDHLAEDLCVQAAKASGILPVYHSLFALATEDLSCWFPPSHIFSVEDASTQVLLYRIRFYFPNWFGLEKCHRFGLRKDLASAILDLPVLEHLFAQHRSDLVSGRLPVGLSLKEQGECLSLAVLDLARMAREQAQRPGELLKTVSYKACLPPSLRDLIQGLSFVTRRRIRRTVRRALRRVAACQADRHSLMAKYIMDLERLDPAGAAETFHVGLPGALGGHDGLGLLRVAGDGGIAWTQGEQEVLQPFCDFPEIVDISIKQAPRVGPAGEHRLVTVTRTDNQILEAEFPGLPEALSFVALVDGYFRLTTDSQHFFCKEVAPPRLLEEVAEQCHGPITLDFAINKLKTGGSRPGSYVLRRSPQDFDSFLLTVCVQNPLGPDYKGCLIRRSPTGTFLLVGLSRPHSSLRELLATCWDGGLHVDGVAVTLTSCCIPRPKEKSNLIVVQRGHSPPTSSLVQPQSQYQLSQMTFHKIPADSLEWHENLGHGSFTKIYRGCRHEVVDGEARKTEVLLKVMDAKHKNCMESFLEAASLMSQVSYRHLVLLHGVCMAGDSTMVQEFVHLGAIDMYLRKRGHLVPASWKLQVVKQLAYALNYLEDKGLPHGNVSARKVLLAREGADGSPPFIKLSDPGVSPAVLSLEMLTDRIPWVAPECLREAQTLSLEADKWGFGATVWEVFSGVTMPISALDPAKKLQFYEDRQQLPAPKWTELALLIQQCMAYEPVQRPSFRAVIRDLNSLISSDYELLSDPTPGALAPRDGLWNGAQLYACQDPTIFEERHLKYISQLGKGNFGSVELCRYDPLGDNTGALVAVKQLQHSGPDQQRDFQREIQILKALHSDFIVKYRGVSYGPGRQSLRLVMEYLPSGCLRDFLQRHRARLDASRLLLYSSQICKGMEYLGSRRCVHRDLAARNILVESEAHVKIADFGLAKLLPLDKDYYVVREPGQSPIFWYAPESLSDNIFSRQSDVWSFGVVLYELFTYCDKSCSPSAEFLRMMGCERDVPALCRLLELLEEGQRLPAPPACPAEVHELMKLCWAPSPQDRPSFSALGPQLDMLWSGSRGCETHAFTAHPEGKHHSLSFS

[10] = molecular target: LTK (Homo sapiens, UniProt P29376); assay: Inhibition of recombinant human cytoplasmic GST-tagged LTK expressed in baculovirus at 1 uM by Z'-LYTE assay
[11] = molecular target: ERBB2 (Homo sapiens, UniProt P04626); assay: Inhibition of recombinant human cytoplasmic His-tagged ERBB2 expressed in baculovirus at 1 uM by Z'-LYTE assay
[12] = molecular target: T4, TXK (Homo sapiens, UniProt P42681); assay: Inhibition of human full length GST-tagged TXK expressed in baculovirus at 1 uM by Z'-LYTE assay
T4 sequence (P42681 whole entry): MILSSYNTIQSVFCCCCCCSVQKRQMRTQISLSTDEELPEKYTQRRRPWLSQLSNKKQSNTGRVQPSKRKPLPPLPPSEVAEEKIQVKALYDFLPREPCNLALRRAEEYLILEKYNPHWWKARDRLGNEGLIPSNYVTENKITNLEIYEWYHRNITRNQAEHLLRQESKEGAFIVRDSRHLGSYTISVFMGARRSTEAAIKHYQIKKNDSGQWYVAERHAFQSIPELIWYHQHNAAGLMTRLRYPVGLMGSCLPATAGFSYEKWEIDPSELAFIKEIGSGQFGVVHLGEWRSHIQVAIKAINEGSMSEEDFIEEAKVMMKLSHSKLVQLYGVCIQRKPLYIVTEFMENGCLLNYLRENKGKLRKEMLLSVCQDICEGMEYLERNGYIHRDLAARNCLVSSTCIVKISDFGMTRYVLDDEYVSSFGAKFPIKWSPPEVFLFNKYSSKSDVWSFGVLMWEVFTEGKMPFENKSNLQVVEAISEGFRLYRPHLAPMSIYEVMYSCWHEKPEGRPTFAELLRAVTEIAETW

[13] = molecular target: EGFR (Homo sapiens, UniProt P00533); assay: Inhibition of recombinant human cytoplasmic GST-tagged EGFR expressed in baculovirus at 1 uM by Z'-LYTE assay
[14] = molecular target: ERBB4 (Homo sapiens, UniProt Q15303); assay: Inhibition of recombinant human cytoplasmic GST-tagged ERBB4 expressed in baculovirus at 1 uM by Z'-LYTE assay
Chain of ERBB4 (Q15303 whole entry): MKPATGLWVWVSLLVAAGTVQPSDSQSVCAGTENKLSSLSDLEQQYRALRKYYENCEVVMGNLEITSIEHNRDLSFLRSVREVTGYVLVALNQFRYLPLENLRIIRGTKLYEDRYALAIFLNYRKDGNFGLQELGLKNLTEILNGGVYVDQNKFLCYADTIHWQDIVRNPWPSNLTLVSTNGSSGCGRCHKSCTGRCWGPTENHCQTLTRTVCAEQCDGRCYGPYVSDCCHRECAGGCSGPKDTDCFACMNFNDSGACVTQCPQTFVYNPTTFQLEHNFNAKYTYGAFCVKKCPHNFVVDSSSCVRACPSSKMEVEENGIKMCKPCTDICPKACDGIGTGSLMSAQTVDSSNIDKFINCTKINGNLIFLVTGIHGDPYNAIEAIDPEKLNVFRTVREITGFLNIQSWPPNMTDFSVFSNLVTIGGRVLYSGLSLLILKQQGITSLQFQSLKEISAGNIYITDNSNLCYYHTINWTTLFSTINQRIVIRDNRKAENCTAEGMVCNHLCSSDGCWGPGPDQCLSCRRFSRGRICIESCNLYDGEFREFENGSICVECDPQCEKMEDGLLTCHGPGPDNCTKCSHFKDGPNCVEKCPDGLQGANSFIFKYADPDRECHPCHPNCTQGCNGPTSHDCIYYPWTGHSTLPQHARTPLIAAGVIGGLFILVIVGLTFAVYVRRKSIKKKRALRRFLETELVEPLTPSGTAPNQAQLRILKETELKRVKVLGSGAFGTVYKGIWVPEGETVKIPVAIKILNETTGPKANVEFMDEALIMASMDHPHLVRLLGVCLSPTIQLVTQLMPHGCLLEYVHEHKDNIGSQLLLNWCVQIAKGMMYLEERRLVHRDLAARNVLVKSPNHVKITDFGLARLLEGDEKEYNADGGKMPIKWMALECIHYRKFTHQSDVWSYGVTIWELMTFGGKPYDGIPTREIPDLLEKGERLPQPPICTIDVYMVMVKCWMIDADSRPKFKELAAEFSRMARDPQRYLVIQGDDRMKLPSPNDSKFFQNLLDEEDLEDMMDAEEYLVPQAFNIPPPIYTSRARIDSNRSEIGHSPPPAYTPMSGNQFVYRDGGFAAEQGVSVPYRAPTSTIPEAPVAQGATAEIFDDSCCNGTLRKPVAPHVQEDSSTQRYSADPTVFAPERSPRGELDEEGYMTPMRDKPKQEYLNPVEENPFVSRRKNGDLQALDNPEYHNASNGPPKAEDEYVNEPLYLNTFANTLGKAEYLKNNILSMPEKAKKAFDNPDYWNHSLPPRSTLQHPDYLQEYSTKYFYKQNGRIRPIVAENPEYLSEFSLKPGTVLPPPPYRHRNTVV

Chain of LTK (P29376 whole entry): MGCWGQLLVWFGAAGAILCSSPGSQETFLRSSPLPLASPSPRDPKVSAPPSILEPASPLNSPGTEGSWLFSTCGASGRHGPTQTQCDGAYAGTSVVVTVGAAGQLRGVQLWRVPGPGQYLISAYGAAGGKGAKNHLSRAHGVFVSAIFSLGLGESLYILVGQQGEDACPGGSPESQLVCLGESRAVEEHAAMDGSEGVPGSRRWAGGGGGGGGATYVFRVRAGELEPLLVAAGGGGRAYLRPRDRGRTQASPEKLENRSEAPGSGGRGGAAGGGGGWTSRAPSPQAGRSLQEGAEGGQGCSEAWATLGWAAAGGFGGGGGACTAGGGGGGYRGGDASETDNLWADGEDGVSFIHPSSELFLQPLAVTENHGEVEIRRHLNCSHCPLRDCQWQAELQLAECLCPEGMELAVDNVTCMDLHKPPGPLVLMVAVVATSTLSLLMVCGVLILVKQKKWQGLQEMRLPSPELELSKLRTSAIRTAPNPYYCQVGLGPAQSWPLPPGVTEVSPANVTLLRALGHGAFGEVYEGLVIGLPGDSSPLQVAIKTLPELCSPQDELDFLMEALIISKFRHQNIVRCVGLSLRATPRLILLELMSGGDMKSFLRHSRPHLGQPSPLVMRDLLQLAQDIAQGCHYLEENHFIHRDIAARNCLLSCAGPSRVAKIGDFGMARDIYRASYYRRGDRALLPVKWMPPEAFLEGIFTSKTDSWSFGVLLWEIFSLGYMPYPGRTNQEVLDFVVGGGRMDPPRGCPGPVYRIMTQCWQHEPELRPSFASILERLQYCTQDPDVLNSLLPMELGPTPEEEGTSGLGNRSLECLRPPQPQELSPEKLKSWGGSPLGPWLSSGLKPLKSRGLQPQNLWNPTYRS
T1 sequence (Q06187 whole entry, the tested form may be a part): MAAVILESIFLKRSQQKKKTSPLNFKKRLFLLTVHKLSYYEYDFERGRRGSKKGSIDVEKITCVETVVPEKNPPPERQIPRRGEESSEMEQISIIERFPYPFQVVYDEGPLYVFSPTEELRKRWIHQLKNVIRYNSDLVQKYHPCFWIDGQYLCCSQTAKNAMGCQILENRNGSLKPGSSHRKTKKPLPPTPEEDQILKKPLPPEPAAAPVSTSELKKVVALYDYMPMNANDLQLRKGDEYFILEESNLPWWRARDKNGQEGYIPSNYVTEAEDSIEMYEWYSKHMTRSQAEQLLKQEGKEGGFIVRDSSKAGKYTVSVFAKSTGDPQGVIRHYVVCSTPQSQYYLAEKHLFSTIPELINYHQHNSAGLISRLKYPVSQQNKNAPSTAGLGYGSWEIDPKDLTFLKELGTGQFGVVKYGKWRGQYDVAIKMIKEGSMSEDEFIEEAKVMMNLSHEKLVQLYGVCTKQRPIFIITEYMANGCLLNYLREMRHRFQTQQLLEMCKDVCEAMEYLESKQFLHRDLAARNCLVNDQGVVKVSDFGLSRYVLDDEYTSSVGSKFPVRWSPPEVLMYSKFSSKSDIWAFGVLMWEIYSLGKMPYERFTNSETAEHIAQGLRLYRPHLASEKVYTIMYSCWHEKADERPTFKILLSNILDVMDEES
Chain of BLK (P51451 whole entry): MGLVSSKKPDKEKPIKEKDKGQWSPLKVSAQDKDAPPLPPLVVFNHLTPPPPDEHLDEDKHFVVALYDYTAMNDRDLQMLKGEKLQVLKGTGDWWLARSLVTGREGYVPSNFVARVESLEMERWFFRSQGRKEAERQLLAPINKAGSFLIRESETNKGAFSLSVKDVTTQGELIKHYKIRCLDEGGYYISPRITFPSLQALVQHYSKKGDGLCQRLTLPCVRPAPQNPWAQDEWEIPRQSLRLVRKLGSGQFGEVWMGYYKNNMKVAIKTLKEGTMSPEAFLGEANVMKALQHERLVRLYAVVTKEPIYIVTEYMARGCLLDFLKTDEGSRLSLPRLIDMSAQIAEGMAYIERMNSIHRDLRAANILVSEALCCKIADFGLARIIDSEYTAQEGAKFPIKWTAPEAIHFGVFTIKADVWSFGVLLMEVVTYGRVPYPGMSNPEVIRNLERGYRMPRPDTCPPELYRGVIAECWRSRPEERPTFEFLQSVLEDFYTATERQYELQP
Chain of ERBB2 (P04626 whole entry): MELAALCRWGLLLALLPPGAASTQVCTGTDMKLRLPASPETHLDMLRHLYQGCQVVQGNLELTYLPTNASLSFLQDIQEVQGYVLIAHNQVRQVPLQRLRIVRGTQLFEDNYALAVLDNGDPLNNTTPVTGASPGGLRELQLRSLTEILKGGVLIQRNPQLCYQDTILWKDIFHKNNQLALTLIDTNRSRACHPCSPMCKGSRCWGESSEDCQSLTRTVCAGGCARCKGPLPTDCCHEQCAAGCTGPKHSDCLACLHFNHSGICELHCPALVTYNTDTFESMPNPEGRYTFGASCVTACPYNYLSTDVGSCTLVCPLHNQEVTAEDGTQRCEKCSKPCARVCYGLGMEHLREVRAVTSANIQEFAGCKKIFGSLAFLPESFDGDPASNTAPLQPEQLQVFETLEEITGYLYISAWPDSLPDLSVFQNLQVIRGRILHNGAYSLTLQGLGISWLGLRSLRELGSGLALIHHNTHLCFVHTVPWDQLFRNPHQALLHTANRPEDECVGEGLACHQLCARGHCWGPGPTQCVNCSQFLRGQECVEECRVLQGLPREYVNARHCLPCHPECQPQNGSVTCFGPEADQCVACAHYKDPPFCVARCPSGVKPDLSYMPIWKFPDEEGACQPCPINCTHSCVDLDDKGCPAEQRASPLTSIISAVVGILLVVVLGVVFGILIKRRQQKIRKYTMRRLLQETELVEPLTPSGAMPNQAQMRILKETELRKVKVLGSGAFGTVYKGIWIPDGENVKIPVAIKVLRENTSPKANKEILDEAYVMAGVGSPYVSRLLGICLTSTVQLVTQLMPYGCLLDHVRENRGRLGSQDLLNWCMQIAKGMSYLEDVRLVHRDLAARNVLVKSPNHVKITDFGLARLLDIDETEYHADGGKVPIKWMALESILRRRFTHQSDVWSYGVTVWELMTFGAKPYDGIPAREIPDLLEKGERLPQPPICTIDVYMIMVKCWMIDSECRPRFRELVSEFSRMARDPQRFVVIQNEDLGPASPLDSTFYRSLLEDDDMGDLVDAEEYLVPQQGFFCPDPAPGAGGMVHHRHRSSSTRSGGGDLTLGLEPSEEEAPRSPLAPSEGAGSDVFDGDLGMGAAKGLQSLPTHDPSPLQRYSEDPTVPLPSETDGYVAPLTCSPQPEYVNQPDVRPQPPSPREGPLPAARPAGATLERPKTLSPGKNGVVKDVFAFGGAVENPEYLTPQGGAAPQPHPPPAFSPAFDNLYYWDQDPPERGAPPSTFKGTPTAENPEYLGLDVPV

Compound | CLhep predicted at 1 µM [1] | Ki [2] | IC50 [3] | logD [4] | also measured
Cn1cc(-c2ccnc(N3CCn4c(cc5c4CC(C)(C)C5)C3=O)c2CO)cc(Nc2ccc(N3CCN(C4CCOCC4)CC3)cn2)c1=O | 14 mL/min/kg | 0.45 nM | 31.6 nM | – | –
Cn1cc(-c2ccnc(N3CCn4c(cc5c4CC(C)(C)C5)C3=O)c2CO)cc(Nc2ccc(C3CN(C4COC4)C3)cn2)c1=O | 16 mL/min/kg | 0.43 nM | 23.5 nM | 3 | Papp A→B [5]: 48.5 ×10⁻⁶ cm/s; efflux ratio [6]: 0.4
C=CC(=O)N1CCC(CNc2ncnc(N)c2-c2ccc(Oc3ccccc3)cc2)CC1 [EVOBRUTINIB] | – | – | – | – | inhibition at 1 µM [7]: 80%; inhibition at 1 µM [8]: 42%; inhibition at 1 µM [9]: 0%; inhibition at 1 µM [10]: -2%; inhibition at 1 µM [11]: 1%; inhibition at 1 µM [12]: 30%; inhibition at 1 µM [13]: 1%; inhibition at 1 µM [14]: 57%
CC(=O)N1CC2(C1)CN(c1ccc(Nc3cc(-c4ccnc(N5CCn6c(cc7c6CC(C)(C)C7)C5=O)c4CO)cn(C)c3=O)nc1)C2 | 10 mL/min/kg | 3.3 nM | 33.4 nM | 2.5 | –
Cn1cc(-c2ccnc(N3CCn4c(cc5c4CCCC5)C3=O)c2CO)cc(Nc2ccc(N3CCN(C4COC4)CC3)cn2)c1=O | 8.1 mL/min/kg | 1.8 nM | 54.9 nM | 2 | –
Cn1cc(-c2cncc(N3CCn4c(cc5c4CCCC5)C3=O)c2CO)cc(Nc2ccc(N3CCN(C4COC4)CC3)cn2)c1=O | 7.9 mL/min/kg | 6.3 nM | 64.4 nM | 1.9 | –
Cn1cc(-c2ccnc(N3CCn4c5c(c(F)c4C3=O)CCCC5)c2CO)cc(Nc2ccc(N3CCN(C4COC4)CC3)cn2)c1=O | 8.1 mL/min/kg | 2.5 nM | – | – | –
CC#CC(=O)N1CCC[C@H]1c1nc(-c2ccc(C(=O)Nc3ccccn3)cc2)c2c(N)nccn12 [ACALABRUTINIB] | – | – | – | – | inhibition at 1 µM [7]: 71%; inhibition at 1 µM [8]: 16%; inhibition at 1 µM [9]: -3%; inhibition at 1 µM [10]: 2%; inhibition at 1 µM [11]: 36%; inhibition at 1 µM [12]: 31%; inhibition at 1 µM [13]: -1%; inhibition at 1 µM [14]: 93%
Cn1cc(-c2ccnc(N3CCc4c(sc5c4CCCC5)C3=O)c2CO)cc(Nc2ccc(N3CCN(C4COC4)CC3)cn2)c1=O | 13 mL/min/kg | 5.97 nM | – | – | –
C=CC(=O)N1CCC[C@@H](n2nc(-c3ccc(Oc4ccccc4)cc3)c3c(N)ncnc32)C1 [IBRUTINIB] | – | – | – | – | inhibition at 1 µM [7]: 100%; inhibition at 1 µM [8]: 102%; inhibition at 1 µM [9]: 80%; inhibition at 1 µM [10]: 81%; inhibition at 1 µM [11]: 91%; inhibition at 1 µM [12]: 93%; inhibition at 1 µM [14]: 93%
Cn1cc(-c2nccc(N3CCn4c(cc5c4CCCC5)C3=O)c2CO)cc(Nc2ccc(N3CCN(C4COC4)CC3)cn2)c1=O | 8 mL/min/kg | 6.9 nM | 387 nM | 1.8 | –
COCCCN1CCN(c2ccc(Nc3cc(-c4ccnc(N5CCn6c(cc7c6CC(C)(C)C7)C5=O)c4CO)cn(C)c3=O)nc2)CC1 | 12 mL/min/kg | 1 nM | 32.2 nM | 3.3 | Papp A→B [5]: 9 ×10⁻⁶ cm/s; efflux ratio [6]: 1.3

The next lines start with results.

CLhep predicted at 1 µM [1] | Ki [2] | IC50 [3] | logD [4] | Compound | also measured
13 mL/min/kg | 0.43 nM | 12.7 nM | 3.3 | C[C@@H]1CN(c2ccc(Nc3cc(-c4cc(F)cc(N5CCn6c(cc7c6CCCC7)C5=O)c4CO)cn(C)c3=O)nc2)CCN1C | –
13.5 mL/min/kg | 0.58 nM | – | – | Cn1cc(-c2ccnc(N3CCc4c(sc5c4CC(C)(C)C5)C3=O)c2CO)cc(Nc2ccc(N3CCN(C4COC4)CC3)cn2)c1=O | –
14 mL/min/kg | 0.65 nM | 4.6 nM | 3.2 | C[C@H]1CN(C)CCN1c1ccc(Nc2cc(-c3cc(F)cc(N4CCn5c(cc6c5CCCC6)C4=O)c3CO)cn(C)c2=O)nc1 | –
8.8 mL/min/kg | 1.8 nM | 66.5 nM | 2.9 | CC(=O)N1CCN(c2ccc(Nc3cc(-c4ccnc(N5CCn6c(cc7c6CC(C)(C)C7)C5=O)c4CO)cn(C)c3=O)nc2)CC1 | Papp A→B [5]: 11.1 ×10⁻⁶ cm/s; efflux ratio [6]: 1.2
13 mL/min/kg | 0.32 nM | 27.5 nM | 2.3 | C[C@H]1CN(c2ccc(Nc3cc(-c4cc(F)cc(N5CCn6c(cc7c6CCCC7)C5=O)c4CO)cn(C)c3=O)nc2)CCN1C | –
12 mL/min/kg | 1.2 nM | 36.6 nM | 3.2 | COCCN1CCN(c2ccc(Nc3cc(-c4ccnc(N5CCn6c(cc7c6CC(C)(C)C7)C5=O)c4CO)cn(C)c3=O)nc2)CC1 | Papp A→B [5]: 12.5 ×10⁻⁶ cm/s; efflux ratio [6]: 1
10 mL/min/kg | 1 nM | – | – | Cn1cc(-c2ccnc(N3Cc4cc(C(C)(C)C)sc4C3=O)c2CO)cc(Nc2ccc(N3CCN(C4COC4)CC3)cn2)c1=O | –
9.2 mL/min/kg | 4.2 nM | – | – | Cn1cc(-c2ccnc(-n3ccn4c5c(cc4c3=O)CCCC5)c2CO)cc(Nc2ccc(N3CCN(C4COC4)CC3)cn2)c1=O | –
15 mL/min/kg | – | – | 3.1 | CN1CCN(c2ccc(Nc3cc(-c4cc(F)cc(N5CCn6c(cc7c6CCCC7)C5=O)c4CO)cn(C)c3=O)nc2)CC1 | –
16 mL/min/kg | 4 nM | 116 nM | 4.4 | Cn1cc(-c2ccnc(N3CCn4c(cc5c4CC(C)(C)C5)C3=O)c2CO)cc(Nc2ccc(N3CCN(CCC(F)(F)F)CC3)cn2)c1=O | Papp A→B [5]: 14.2 ×10⁻⁶ cm/s; efflux ratio [6]: 0.6
13 mL/min/kg | 0.37 nM | 16.9 nM | 3.1 | C[C@@H]1CN(C)CCN1c1ccc(Nc2cc(-c3cc(F)cc(N4CCn5c(cc6c5CCCC6)C4=O)c3CO)cn(C)c2=O)nc1 | –
